How the values were obtained:
C57BL/6 mice = experiment: Tail suspension test (TST); assay type: in vivo; conditions: for immobility time in TST: acute i.p. pretreatment, ST-2300 10 or 15 mg/kg, PIM 5–15 mg/kg, FLX 10 mg/kg, vs saline controls, C57BL/6 mice, 6 min
Experimental: Inbred adult male C57BL/6 mice (aged 10–12 weeks and weighing 20–25 g) were obtained from the animal facility in the College of Medicine and Health Sciences, United Arab Emirates University. The animals were maintained in a separate air-conditioned room with controlled temperature and humidity (24 ± 2 °C and 55 ± 15%, respectively), with a 12 h light/dark cycle, and ad libitum to food and water. All the experiments were performed between 9.00 am and 3.00 pm. The procedures were approved by the Institutional Animal Ethics Committee of College of Medicine and Health Sciences/United Arab Emirates University (Approval No. ERA-2019-6010). To reduce the suffering of the animals, a minimum number of animals were used in this study, whereas the objectives were not compromised.
These experiments provide the first behavioral assessment of the ST-2300 in anxiety-like and depression-like behaviors in mice. All doses are expressed in terms of the free base of all test compounds. The drugs used in the current study were dissolved in saline and injected i.p. at a volume of 1 mL/kg. All experimental procedures were conducted in a blinded fashion in which the experimenter was uninformed about the specific treatment groups to which an animal group belonged. Saline, ST-2300 (5, 10, and 15 mg/kg), PIM (5, 10, and 15 mg/kg), FLX (10 mg/kg), RAM (10 mg/kg), and DZP (1 mg/kg) were injected i.p. 30–45 min before the beginning of the behavioral experiments.
This experimental protocol was followed as previously described, however with slight modifications. Each mouse was suspended on the edge of a rod 50 cm above a table top using adhesive Scotch tape placed approximately 1 cm from the tip of the tail. Tail climbing was prevented by passing the mouse’s tail through a small plastic cylinder prior to suspension, as described by Can et al.. The duration of immobility was manually scored for a 6 min observation period. Mice were considered immobile only when they hung down passively and were completely motionless. The parameter recorded was the number of seconds spent immobile.

human 5-HT1A = target: T1, human 5-HT1A (Homo sapiens, UniProt P08908); experiment: Radioligand displacement assay at 5-HT1A ([3H]-8-OH-DPAT, HEK293 cells); assay type: binding; conditions: HEK293 cells stably expressing h5-HT1A, read-out: Ki (n), 5-HT1A
T1 construct: expressed in transfected cells; host or cells: HEK293
T1 sequence (P08908 1-422): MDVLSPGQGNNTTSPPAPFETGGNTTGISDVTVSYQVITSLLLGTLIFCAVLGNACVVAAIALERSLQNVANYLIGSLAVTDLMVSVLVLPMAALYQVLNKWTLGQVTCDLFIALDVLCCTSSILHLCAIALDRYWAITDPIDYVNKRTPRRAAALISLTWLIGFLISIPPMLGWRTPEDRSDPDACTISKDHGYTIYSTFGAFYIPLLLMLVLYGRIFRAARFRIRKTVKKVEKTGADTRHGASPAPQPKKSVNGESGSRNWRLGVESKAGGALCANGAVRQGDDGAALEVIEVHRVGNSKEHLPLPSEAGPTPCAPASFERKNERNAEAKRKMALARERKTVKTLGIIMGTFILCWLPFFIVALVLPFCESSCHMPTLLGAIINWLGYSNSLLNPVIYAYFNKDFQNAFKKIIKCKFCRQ
Experimental: (§1) HEK293 cells with a stable expression of human 5-HT1A, 5-HT6, 5-HT7b, and D2L (prepared with the use of Lipofectamine 2000), or CHO-K1 cells with plasmids containing the sequence coding for the human serotonin 5-HT2A receptor (PerkinElmer), were maintained at 37 °C in a humidified atmosphere with 5% CO2 and grown in Dulbecco’s Modified Eagle Medium containing 10% dialyzed fetal bovine serum and 500 µg/mL G418 sulfate. For membrane preparation, cells were subcultured in 150 cm^2 flasks, grown to 90% confluence, washed twice with prewarmed to 37 °C phosphate buffered saline (PBS) and pelleted by centrifugation (200× g) in PBS containing 0.1 mM EDTA and 1 mM dithiothreitol. Prior to membrane preparation, the pellets were stored at −80 °C.
(§2) Cell pellets were thawed and homogenized in 10 volumes of assay buffer using an Ultra Turrax tissue homogenizer, and were then centrifuged twice at 35,000× g for 15 min at 4 °C, with incubations for 15 min at 37 °C in between. […] The process of equilibration was terminated by rapid filtration through Unifilter plates with a 96-well cell harvester and the radioactivity retained on the filters was quantified on a Microbeta plate reader (PerkinElmer, Waltham, MA, USA). […] The inhibition constants (Ki) were calculated from the Cheng-Prusoff equation [38]. Results are expressed as means of two separate experiments.

human 5-HT6 = target: T2, human 5-HT6 (Homo sapiens, UniProt P50406); experiment: Radioligand displacement assay at 5-HT6 ([3H]-LSD, HEK293 cells); assay type: binding; conditions: HEK293 cells stably expressing h5-HT6, read-out: Ki ± SD (n), 5-HT6
T2 construct: expressed in transfected cells; host or cells: HEK293
T2 sequence (P50406 whole entry): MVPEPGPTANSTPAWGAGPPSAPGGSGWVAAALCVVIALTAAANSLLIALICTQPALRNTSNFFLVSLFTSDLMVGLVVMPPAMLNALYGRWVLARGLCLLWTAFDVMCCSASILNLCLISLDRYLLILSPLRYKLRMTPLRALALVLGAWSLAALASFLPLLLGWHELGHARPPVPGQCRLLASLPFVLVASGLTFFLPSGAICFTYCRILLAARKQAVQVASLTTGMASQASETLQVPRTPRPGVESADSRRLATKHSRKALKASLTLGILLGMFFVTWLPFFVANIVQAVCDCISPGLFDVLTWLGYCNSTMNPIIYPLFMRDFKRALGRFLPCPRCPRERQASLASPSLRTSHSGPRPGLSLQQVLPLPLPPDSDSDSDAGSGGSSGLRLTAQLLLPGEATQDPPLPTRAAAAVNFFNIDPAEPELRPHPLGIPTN
Experimental: as §1, §2

| SMILES | immobility time in TST (C57BL/6 mice) | Ki (human 5-HT1A) [µM] | Ki (human 5-HT6) [µM] | immobility time in TST, co-administration of RAM (C57BL/6 mice; ST-2300 10 mg/kg i.p. co-administered with H3R agonist RAM 10 mg/kg i.p., vs ST-2300 alone) |
| --- | --- | --- | --- | --- |
| CC(C)COc1ccc(CNC(=O)N(Cc2ccc(F)cc2)C2CCN(C)CC2)cc1 [Pimavanserin, reference compound] | failed to affect the overall immobility time | > 10 | 0.059 ± 0.011 | – |
| CN1CCC(N(Cc2ccc(F)cc2)C(=O)NCc2ccc(OCCCN3CCCCC3)cc2)CC1 [ST-2300, 1-(4-Fluorobenzyl)-1-(1-methylpiperidin-4-yl)-3-{4-[3-(piperidin-1-yl)propoxy]benzyl}urea] | significantly reduced the immobility time | > 10 | > 10 | reversed by systemic co-administration with the CNS-penetrant H3R agonist RAM |
